Read-outs that look alike come from different tables or passages of the source.
Legend:
Format in all cases: biochemical
Aurora-2 (Aurora A) = target: T1, Aurora-2 (Aurora A) (Homo sapiens, UniProt O14965); experiment: Aurora-2 (Aurora A) inhibition assay, coupled enzyme
T1 sequence (O14965 1-403): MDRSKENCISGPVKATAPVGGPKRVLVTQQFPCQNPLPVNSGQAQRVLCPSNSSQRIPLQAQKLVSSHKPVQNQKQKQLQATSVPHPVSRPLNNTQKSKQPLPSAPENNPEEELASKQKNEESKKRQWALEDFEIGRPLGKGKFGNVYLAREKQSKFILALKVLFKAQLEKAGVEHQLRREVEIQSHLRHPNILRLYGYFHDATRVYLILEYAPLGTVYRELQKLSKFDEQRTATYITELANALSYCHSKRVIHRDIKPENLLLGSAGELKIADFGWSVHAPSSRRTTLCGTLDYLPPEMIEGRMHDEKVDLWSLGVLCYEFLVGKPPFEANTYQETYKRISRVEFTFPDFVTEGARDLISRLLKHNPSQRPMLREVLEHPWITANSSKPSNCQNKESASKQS
Method: Assays were carried out in a mixture of 100 mM Hepes (pH7.5), 10 mM MgCl2, 1 mM DTT, 25 mM NaCl, 2.5 mM phosphoenolpyruvate, 300 μM NADH, 30 μg/ml pyruvate kinase and 10 μg/ml lactate dehydrogenase. […] Assays were carried out at 30° C. and in the presence of 40 nM Aurora-2.
An assay stock buffer solution was prepared containing all of the reagents listed above, with the exception of Aurora-2 and the test compound of interest. […] The plate was preincubated for 10 minutes at 30° C. and the reaction initiated by addition of 10 μl of Aurora-2. Initial reaction rates were determined with a Molecular Devices SpectraMax Plus plate reader over a 10 minute time course. IC50 and Ki data were calculated from non-linear regression analysis using the Prism software package (GraphPad Prism version 3.0cx for Macintosh, GraphPad Software, San Diego Calif., USA).

FLT-3 = target: T2, FLT-3 (Homo sapiens, UniProt P36888); experiment: FLT-3 inhibition assay, radiometric filter-binding; conditions: 90 μM ATP
T2 sequence (P36888 27-993): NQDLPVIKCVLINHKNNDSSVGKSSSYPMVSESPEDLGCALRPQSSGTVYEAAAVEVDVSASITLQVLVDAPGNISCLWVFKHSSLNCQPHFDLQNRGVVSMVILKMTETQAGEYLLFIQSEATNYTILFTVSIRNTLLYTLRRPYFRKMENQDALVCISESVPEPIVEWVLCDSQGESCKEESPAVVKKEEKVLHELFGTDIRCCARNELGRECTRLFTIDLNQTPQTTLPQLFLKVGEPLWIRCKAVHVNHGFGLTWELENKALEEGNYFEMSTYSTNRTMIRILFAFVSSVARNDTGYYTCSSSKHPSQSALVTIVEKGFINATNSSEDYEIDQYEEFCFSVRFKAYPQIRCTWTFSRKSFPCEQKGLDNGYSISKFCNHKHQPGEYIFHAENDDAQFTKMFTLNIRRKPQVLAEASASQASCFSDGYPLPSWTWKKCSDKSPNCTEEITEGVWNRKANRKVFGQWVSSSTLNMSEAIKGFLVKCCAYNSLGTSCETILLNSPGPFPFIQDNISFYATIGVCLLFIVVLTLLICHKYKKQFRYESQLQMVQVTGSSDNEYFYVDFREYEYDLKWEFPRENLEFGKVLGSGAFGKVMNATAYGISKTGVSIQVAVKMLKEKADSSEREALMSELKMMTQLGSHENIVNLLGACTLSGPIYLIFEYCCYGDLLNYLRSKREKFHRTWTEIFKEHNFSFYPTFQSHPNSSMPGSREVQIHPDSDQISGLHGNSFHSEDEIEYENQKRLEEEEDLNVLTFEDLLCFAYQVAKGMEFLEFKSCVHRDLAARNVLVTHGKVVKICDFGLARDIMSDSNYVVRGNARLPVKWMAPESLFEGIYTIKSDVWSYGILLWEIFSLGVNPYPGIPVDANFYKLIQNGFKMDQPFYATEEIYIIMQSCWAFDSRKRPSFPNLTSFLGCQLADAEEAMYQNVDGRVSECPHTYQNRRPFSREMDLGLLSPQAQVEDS
Method: This assay monitors the ^33P incorporation into a substrate poly(Glu, Tyr) 4:1 (pE4Y). Reactions were carried out in a solution containing 100 mM HEPES (pH 7.5), 10 mM MgCl2, 25 mM NaCl, 1 mM DTT, 0.01% BSA and 2.5% DMSO. Final substrate concentrations in the assay were 90 μM ATP and 0.5 mg/ml pE4Y (both from Sigma Chemicals, St Louis, Mo.). The final concentration of a compound of the present invention was generally between 0.01 and 5 μM. Typically, a 12-point titration was conducted by preparing serial dilutions from 10 mM DMSO stock of test compound. Reactions were carried out at room temperature.
Two assay solutions were prepared. Solution 1 contains 100 mM HEPES (pH 7.5), 10 mM MgCl2, 25 mM NaCl, 1 mg/ml pE4Y and […] (containing 0.3 mCi of [γ-33^P]ATP for each reaction). Solution 2 contains 100 mM HEPES (pH 7.5), 10 mM MgCl2, 25 mM NaCl, 2 mM DTT, 0.02% BSA and 3 nM FLT-3. The assay was run on a 96 well plate by mixing 50 μl each of Solution 1 and […] of the compounds of the present invention. The reaction was initiated with Solution 2. […] All of the reaction volume was then transferred to a filter plate and washed with 5% TCA by a Harvester 9600 from TOMTEC (Hamden, Conn.). The amount of ^33P incorporation into pE4y was analyzed by a Packard Top Count Microplate Scintillation Counter (Meriden, Conn.). The data was fitted using Prism software to get an IC50 or Ki.

[1] = target: N-terminally truncated (Δ 27) Abl kinase (Homo sapiens, UniProt P00519); experiment: Abl kinase activity inhibition assay, coupled enzyme
Chain of N-terminally truncated (Δ 27) Abl kinase (P00519 28-1130 limits assumed, stated change not applied): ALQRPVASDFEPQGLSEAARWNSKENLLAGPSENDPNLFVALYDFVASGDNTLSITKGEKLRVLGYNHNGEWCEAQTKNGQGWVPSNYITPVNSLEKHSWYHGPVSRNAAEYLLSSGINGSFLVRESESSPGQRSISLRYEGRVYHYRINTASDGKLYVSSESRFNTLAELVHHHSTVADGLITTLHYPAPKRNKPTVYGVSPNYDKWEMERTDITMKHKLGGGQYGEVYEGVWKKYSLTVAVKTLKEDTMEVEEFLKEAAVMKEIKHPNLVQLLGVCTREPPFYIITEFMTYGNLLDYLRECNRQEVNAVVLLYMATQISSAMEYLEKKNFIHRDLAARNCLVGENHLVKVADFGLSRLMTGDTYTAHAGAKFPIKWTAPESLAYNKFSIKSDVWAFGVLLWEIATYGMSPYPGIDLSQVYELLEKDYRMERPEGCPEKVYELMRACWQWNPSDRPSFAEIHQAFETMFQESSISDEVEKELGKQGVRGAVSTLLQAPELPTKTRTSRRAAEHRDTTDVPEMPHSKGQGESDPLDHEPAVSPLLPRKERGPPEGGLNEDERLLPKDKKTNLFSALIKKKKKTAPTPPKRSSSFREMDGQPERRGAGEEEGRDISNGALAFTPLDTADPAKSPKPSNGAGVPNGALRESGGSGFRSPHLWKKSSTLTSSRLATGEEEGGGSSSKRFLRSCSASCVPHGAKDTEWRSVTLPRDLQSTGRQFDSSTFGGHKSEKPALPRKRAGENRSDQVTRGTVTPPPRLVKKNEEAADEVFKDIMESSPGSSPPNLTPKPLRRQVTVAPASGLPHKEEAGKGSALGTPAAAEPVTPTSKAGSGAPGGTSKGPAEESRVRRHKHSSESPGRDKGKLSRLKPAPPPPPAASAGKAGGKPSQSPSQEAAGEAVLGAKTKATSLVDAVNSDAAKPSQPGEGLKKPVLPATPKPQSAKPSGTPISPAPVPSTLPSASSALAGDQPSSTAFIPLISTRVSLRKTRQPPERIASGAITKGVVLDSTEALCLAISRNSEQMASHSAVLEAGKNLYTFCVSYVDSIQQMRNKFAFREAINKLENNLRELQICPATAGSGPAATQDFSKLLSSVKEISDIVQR
Method: Reactions were carried out in a solution containing 100 mM HEPES (pH 7.5), 10 mM MgCl2, 25 mM NaCl, 300 μM NADH, 1 mM DTT and 3% DMSO. […] Final concentrations of the components of the coupled enzyme system were 2.5 mM phosphoenolpyruvate, 200 μM NADH, 60 μg/ml pyruvate kinase and 20 μg/ml lactate dehydrogenase.
An assay stock buffer solution was prepared containing all of the reagents listed above with the exception of ATP and the test compound of interest. […] Rates of reaction were obtained using a Molecular Devices Spectramax plate reader (Sunnyvale, Calif.) over 10 min at 30° C. The Ki values were determined from the residual rate data as a function of inhibitor concentration using nonlinear regression (Prism 3.0, Graphpad Software, San Diego, Calif.).

FGFR1 = FGFR1 (Homo sapiens, UniProt P11362); experiment: FGFR1 inhibition screen; conditions: ATP at or close to Km
Chain of FGFR1 (P11362 22-822, species assumed): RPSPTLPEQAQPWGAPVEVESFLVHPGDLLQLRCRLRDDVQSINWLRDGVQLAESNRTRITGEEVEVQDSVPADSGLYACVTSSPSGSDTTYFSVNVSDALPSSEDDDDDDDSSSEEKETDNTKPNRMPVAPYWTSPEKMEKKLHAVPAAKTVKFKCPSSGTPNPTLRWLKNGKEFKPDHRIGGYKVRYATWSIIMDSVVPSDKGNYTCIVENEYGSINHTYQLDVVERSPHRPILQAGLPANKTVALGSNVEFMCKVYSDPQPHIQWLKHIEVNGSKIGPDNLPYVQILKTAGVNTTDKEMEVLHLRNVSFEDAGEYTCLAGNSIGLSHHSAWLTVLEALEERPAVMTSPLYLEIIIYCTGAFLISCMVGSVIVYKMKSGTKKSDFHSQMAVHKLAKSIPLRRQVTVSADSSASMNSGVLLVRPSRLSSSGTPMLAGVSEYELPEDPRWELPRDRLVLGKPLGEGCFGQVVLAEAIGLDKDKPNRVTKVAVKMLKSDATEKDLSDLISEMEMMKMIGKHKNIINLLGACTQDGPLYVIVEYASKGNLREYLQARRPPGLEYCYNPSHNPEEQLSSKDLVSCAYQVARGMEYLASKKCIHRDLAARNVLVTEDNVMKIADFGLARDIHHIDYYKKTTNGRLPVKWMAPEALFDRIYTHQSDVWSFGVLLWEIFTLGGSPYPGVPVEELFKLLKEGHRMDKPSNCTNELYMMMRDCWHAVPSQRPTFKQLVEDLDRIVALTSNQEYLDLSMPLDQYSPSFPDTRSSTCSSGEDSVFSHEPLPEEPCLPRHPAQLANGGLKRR
Source text: Compound(s) were screened for their ability to inhibit Arg (Abl-2), FGFR1, MLK1, Tie2, and TrkA using screening methods known to one of ordinary skill in the art. All of the above enzymes were screened with ATP concentrations at or close to the Km for ATP.

[2] = 400 μM ATP, 40 nM Aurora-2, read-out: Aurora A Ki

Ki [1] [nM] | IC50 (FGFR1; Table 6, introduced as Ki values) [nM] | Structure (SMILES) | Ki (Aurora-2 (Aurora A); [2]) [nM] | Ki (FLT-3) [nM] | Ki (Aurora-2 (Aurora A)) [nM] | IC50 (FGFR1; Table 5) [nM]
30 | – | Cc1cc(Nc2cc(N3CC(O)(C4CC4)C3)nc(Sc3ccc(NC(=O)C4CC4)cc3)n2)n[nH]1 [Compound I-8] | 0.87 | 28 | – | –
– | – | Cc1cc(Nc2cc(N3CC(O)(C4CC4)C3)nc(Sc3ccc(NC(=O)C4CC4)cc3F)n2)[nH]n1 [Compound I-11, N-(4-((4-(3-methyl-1H-pyrazol-5-ylamino)-6-(3-cyclopropyl-3-hydroxyazetidin-1-yl)pyrimidin-2-yl)sulfanyl)-3-fluorophenyl)cyclopropanecarboxamide] | 0.41 | 20 | – | –
– | – | Cc1cc(Nc2cc(N3CC(F)(C4CC4)C3)nc(Sc3ccc(NC(=O)CC(F)(F)F)nc3)n2)[nH]n1 [Compound I-21, N-(5-(4-(3-methyl-1H-pyrazol-5-ylamino)-6-(3-cyclopropyl-3-fluoroazetidin-1-yl)pyrimidin-2-ylthio)pyridin-2-yl)-3,3,3-trifluoropropanamide] | – | 120 | 0.44 | –
– | – | Cc1cc(Nc2cc(N3CC(O)(C4CC4)C3)nc(Sc3ccc(NC(=O)C4CCCC4)cc3)n2)[nH]n1 [Compound I-9, N-(4-((4-(3-methyl-1H-pyrazol-5-ylamino)-6-(3-cyclopropyl-3-hydroxyazetidin-1-yl)pyrimidin-2-yl)sulfanyl)phenyl)cyclopentanecarboxamide] | 0.43 | 110 | – | –
– | – | CCC(=O)Nc1ccc(Sc2nc(Nc3cc(C)n[nH]3)cc(N3CC(O)(C(C)C)C3)n2)cc1 [Compound I-5] | 1.2 | 21 | – | –
– | – | Cc1cc(Nc2cc(N3CC(F)(C4CC4)C3)nc(Sc3ccc(NC(=O)CC4CC4)cc3)n2)[nH]n1 [Compound I-19] | – | 140 | 0.44 | 35
23 | 65 | Cc1cc(Nc2cc(N3CC(F)(C4CC4)C3)nc(Sc3ccc(NC(=O)CC(F)(F)F)cc3)n2)[nH]n1 [Compound I-14, N-(4-(4-(3-methyl-1H-pyrazol-5-ylamino)-6-(3-cyclopropyl-3-fluoroazetidin-1-yl)pyrimidin-2-ylthio)phenyl)-3,3,3-trifluoropropanamide] | 0.35 | 65 | – | 121
– | – | Cc1cc(Nc2cc(N3CC(F)(C4CC4)C3)nc(Sc3ccc(NC(=O)C4CC4)cc3F)n2)n[nH]1 [Compound I-18] | – | 160 | 0.35 | 22
– | – | CCC(=O)Nc1ccc(Sc2nc(Nc3cc(C)n[nH]3)cc(N3CC(O)(C(C)CC)C3)n2)cc1 (centres unmarked) [Compound I-6] | – | 48 | 0.77 | –
88 | – | Cc1cc(Nc2cc(N3CC(F)(C4CC4)C3)nc(Sc3ccc(NC(=O)C4CC4)cc3)n2)n[nH]1 [Compound I-13] | 1.1 | 43 | – | –
– | – | Cc1cc(Nc2cc(N3CC(O)(C4CC4)C3)nc(Sc3ccc(NC(=O)C4CC4(F)F)cc3)n2)[nH]n1 (centres unmarked) [Compound I-12] | 0.35 | 15 | – | –
– | – | O=C(Nc1ccc(Sc2nc(Nc3cc(C4CC4)[nH]n3)cc(N3CC(O)(C4CC4)C3)n2)cc1)C1CC1 [Compound I-10] | – | 2.5 | 0.42 | –
– | – | CCC(=O)Nc1ccc(Sc2nc(Nc3cc(C4CC4)[nH]n3)cc(N3CC(O)(C4CC4)C3)n2)cc1 [Compound I-7] | – | 23 | 0.36 | –
– | – | Cc1cc(Nc2cc(N3CC(F)(C4CC4)C3)nc(Sc3ccc(NC(=O)C4CC4(F)F)cc3)n2)[nH]n1 (centres unmarked) [Compound I-20] | 0.77 | 72 | – | –

Structure (SMILES) | Ki [1] [nM] | IC50 (FGFR1; Table 6, introduced as Ki values) [nM] | Ki (Aurora-2 (Aurora A); [2]) [nM] | Ki (FLT-3) [nM] | Ki (Aurora-2 (Aurora A)) [nM] | IC50 (FGFR1; Table 5) [nM]
CCC(=O)Nc1ccc(Sc2nc(Nc3cc(C)n[nH]3)cc(N3CC(O)(C4CC4)C3)n2)cc1 [Compound I-2] | 64 | – | 0.39 | 36 | – | –
CCC(=O)Nc1ccc(Sc2nc(Nc3cc(C)n[nH]3)cc(N3CC(O)(C4CCCC4)C3)n2)cc1 [Compound I-3] | 30 | – | 0.67 | 26 | – | –

Source: patent US8129399B2, “Aminopyrimidines useful as kinase inhibitors” (Vertex Pharmaceuticals Incorporated, priority 2005, dated 2012)
